# According to ChEMBL document CHEMBL3286321, “Facile Synthesis and Preliminary Structure-Activity Analysis of New Sulfonamides Against Trypanosoma brucei” (ACS Med Chem Lett, 2014):
# What was measured:
# [1] = tested on: Trypanosoma brucei brucei; experiment: Trypanocidal activity against logarithmic phase of Trypanosoma brucei brucei 427 assessed as inhibition of parasite viability at 10 uM after 48 hrs by Alamar blue viability assay; assay type: functional; settings: Trypanosoma brucei, 427, 48 h
# [2] = tested on: Trypanosoma brucei brucei; experiment: Trypanocidal activity against logarithmic phase of Trypanosoma brucei brucei 427 assessed as inhibition of parasite viability after 48 hrs by Alamar blue viability assay; assay type: functional, organism-based; settings: Trypanosoma brucei, 427, 48 h
# [3] = Selectivity index, ratio of IC50 for HEK293 cells to IC50 for Trypanosoma brucei brucei 427; assay type: toxicity, cell-based; settings: human, read-out: Ratio IC50
Structure (SMILES),inhibition at 10 µM [1] [%],IC50 [2] [µM],selectivity ratio [3]
CCCS(=O)(=O)N1CCCc2ccc(NS(=O)(=O)c3cccc(C)c3)cc21,< 10,–,–
Cc1ccc(S(=O)(=O)N2CCCc3ccc(NS(=O)(=O)c4cccs4)cc32)cc1,–,7.9,1.7
CCS(=O)(=O)Nc1ccc2c(c1)N(S(=O)(=O)CC)CCC2,14,–,–
Cc1ccc(S(=O)(=O)Nc2ccc3c(c2)N(S(=O)(=O)c2ccc(C)cc2)CCC3)cc1,–,3.9,1.8
CCCS(=O)(=O)N1CCCc2ccc(NS(=O)(=O)c3cc(C)cc(C)c3)cc21,< 10,–,–
CCS(=O)(=O)N1CCCc2ccc(NS(=O)(=O)c3ccc(Br)s3)cc21,–,11.2,7.7
CCCS(=O)(=O)N1CCCc2ccc(NS(=O)(=O)c3c(C)c(C)c(C)c(C)c3C)cc21,–,7.9,11.4
CCS(=O)(=O)N1CCCc2ccc(NS(=O)(=O)c3ccc(F)cc3)cc21,–,7.8,11.8
CCS(=O)(=O)N1CCCc2ccc(NS(=O)(=O)c3cccs3)cc21,–,4,20.8
CCS(=O)(=O)N1CCCc2ccc(NS(=O)(=O)c3ccc(C)cc3)cc21,–,3.4,25.8
CCS(=O)(=O)N1CCCc2ccc(NS(=O)(=O)c3ccc(Br)cc3F)cc21,–,9.9,9
CCS(=O)(=O)N1CCCc2ccc(NS(=O)(=O)c3cccc(F)c3)cc21,–,7.8,11.2
CCCS(=O)(=O)N1CCCc2ccc(NS(=O)(=O)c3ccc(C)cc3C)cc21,–,9,10.4
CCCS(=O)(=O)N1CCCc2ccc(NS(=O)(=O)c3cccs3)cc21,< 10,–,–
CCCS(=O)(=O)N1CCCc2ccc(NS(=O)(=O)c3ccc(-c4ccccc4)cc3)cc21,–,5.7,16.6
CCCS(=O)(=O)N1CCCc2ccc(NS(=O)(=O)c3ccc(C(C)C)cc3)cc21,–,1.71,8.9
CCS(=O)(=O)N1CCCc2ccc(NS(=O)(=O)c3c(F)c(F)c(F)c(F)c3F)cc21,94,–,–
CCS(=O)(=O)N1CCCc2ccc(NS(=O)(=O)CC(F)(F)F)cc21,18,–,–
CCCS(=O)(=O)N1CCCc2ccc(NS(=O)(=O)c3ccccc3F)cc21,–,3.5,24.3
O=S(=O)(Nc1ccc2c(c1)N(S(=O)(=O)c1cccs1)CCC2)c1cccs1,35,–,–
CCS(=O)(=O)N1CCCc2ccc(NS(=O)(=O)c3ccc(Cl)s3)cc21,–,13.1,6.9
Cc1ccc(S(=O)(=O)Nc2ccc3c(c2)N(S(=O)(=O)c2cccs2)CCC3)cc1,–,3.1,2.5
CCS(=O)(=O)N1CCCc2ccc(NS(=O)(=O)c3ccccc3F)cc21,–,–,32
CCCS(=O)(=O)N1CCCc2ccc(NS(=O)(=O)c3ccc(C)cc3)cc21,–,1.84,29
CCS(=O)(=O)N1CCCc2ccc(NS(=O)(=O)c3c(F)cccc3F)cc21,82,–,–
CCCS(=O)(=O)N1CCCc2ccc(NS(=O)(=O)c3ccccc3C)cc21,11,–,–
